Molecules are shown by their SMILES. Where “and” joins values, the source holds several entries; their conditions need not be identical. Equal values may be shown once. Read-outs that look alike come from different tables or passages of the source.

One series has as its target T1, 5HT2A (Homo sapiens, UniProt P28223).
T1 construct: Eurofins Cerep
Kind of series: SafetyScreen44 panel: 5HT2A. It is filed as binding. The settings on record: 1 µM. The text has this: (§1) See https://www.eurofinsdiscoveryservices.com.

The subject of another series is DATKO mice. Kind of series: Pre-pulse inhibition in DATKO mice. The format is in vivo. The settings on record: 10 mg/kg i.p. The procedure: (§2) Pre-Pulse Inhibition (PPI): PPI of the acoustic startle response was measured on day 3, via SR-LAB equipment and software from San Diego Instruments. Accelerometers were calibrated to 700±5 mV and output voltages were amplified and analyzed for voltage changes using SR Analysis (San Diego Instruments, San Diego, CA, USA), and exported as an excel file. Background white noise was maintained at 65dB. PPI was measured in a 30-min test with 80 randomized trials of: (1) 10 trials pulse alone (2) 10 trials pre-pulse alone (for each pre-pulse), (3) 10 trials pre-pulse plus pulse (for each pre-pulse), and (4) 10 trials no pulse. 5 pulse alone trials were performed before and after the 80 trials, totaling 90 trials per run. The pre-pulse (4dB, 8dB, or 16dB) was presented 100ms prior to the startle pulse […]. The inter-stimulus interval (ISI) was randomized between 5 and 20s. Experimental mice were placed in a cylindrical tube on a platform in a soundproof chamber. Mice were allowed to acclimatize in the chamber and to the background noise for 300s, followed by 5 consecutive pulse alone trials, then by 80 randomized trials (as described above) and then 5 consecutive pulse alone trials. Pre-pulse inhibition was measured as a decrease in the amplitude of startle response to a 100dB acoustic startle pulse, following each pre-pulse (4dB, 8dB and 16dB).

In the next series the target is T2, 5HT1A (Homo sapiens, UniProt P08908).
T2 construct: Eurofins Cerep
T2 sequence (P08908 1-422): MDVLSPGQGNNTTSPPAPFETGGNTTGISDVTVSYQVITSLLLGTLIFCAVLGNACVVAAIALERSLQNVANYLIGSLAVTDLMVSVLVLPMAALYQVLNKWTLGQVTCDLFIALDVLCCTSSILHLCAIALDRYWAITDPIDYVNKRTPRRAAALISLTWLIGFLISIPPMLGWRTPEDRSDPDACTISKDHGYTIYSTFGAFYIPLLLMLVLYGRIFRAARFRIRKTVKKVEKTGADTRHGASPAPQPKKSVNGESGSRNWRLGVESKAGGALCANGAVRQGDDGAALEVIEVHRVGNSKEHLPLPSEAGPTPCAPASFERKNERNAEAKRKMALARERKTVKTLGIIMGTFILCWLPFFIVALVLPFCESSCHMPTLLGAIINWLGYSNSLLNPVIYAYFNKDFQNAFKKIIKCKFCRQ
Kind of series: SafetyScreen44 panel: 5HT1A. The format is binding. To be noted: 1 µM. The procedure:
The screen assesses the selectivity of the compound on a diverse panel of targets that includes GPCRs, drug transporters, ion channels, nuclear receptors, kinases, and other non-kinase enzymes. The screen employs radioligand binding or enzyme assays for these 44 targets.
For receptor assays, binding was calculated as percent inhibition of the binding of a radioactively labeled ligand specific for each target. For enzyme assays, the inhibition effect was calculated as percent inhibition of control enzyme activity. Tests were performed in duplicate, and results are averages of those two tests. See https://www.eurofinsdiscoveryservices.com.

Series [1] deals with GluN1KD mice. Kind of series: Open-field test in GluN1KD mice. The settings on record: ABM300 10 mg/kg, OLA 1 mg/kg i.p., 30 min before test.
The target in another series is T3, 5HT2B (Homo sapiens, UniProt P41595).
T3 construct: Eurofins Cerep
Kind of series: SafetyScreen44 panel: 5HT2B. It is filed as binding. The settings on record: 1 µM.
Source text: as §1

In the next series the test system is Male Sprague Dawley rats. Kind of series: Conditioned avoidance response (CAR). The format is in vivo. To be noted: rat, in vivo. As for the experimental part:
Male Sprague Dawley rats (PD>63) were trained on a CAR protocol and responding following drug exposure was determined. […] Animals were trained to learn a house light (CS) as predictive of an avoidable 0.6mA scrambled foot shock (US). Each session consisted of 50 trials and animals avoided >70% of trials on the final acquisition session were tested for CAR during vehicle baseline, drug exposure, and re-emergence. In addition to CAR testing, both temperature and catalepsy were recorded in these animals (measure of potential CB1R agonism). Temperature: recorded on first day of drug exposure, prior to injection and 60-90-min. following drug exposure.

Series [2] addresses T4, CB1R (Homo sapiens, UniProt P21554). Kind of series: cell-based.
The target of series [3] is T4, CB1R. Kind of series: cell-based. Further details: beta-galactosidase enzyme fragment (EFC; ProLink by own knowledge). The settings on record: in the presence of the EC80 of CP55,940 (10 nM).
Protocol: The PathHunter® β-Arrestin assay was conducted by Eurofins Pharma Discovery Services (further details can be found at https://www.eurofinsdiscoveryservices.com).
The PathHunter® β-Arrestin assay was conducted by Eurofins Pharma Discovery Services. The assay monitors the activation of a GPCR in a homogenous, non-imaging assay format using a technology developed by DiscoverX called Enzyme Fragment Complementation (EFC) with β-galactosidase (β-Gal) as the functional reporter. Vehicle concentration was 1% DMSO in these assays.
The next series is described as follows: in vitro. It is filed as in vitro ADME, rat. To be noted: pH 7.4. The procedure:
Microsomal stability assays were conducted by Cyprotex Ltd (Macclesfield, UK).
The study of drug stability in the presence of liver microsomes is accepted as a valuable model for permitting rapid prediction of in vivo drug stability (see Kerns & Di, 2008). Microsomal stability studies were performed by Cyprotex Ltd (Macclesfield, UK). […] Microsomes (final protein concentration 0.5 mg/mL), 0.1 M phosphate buffer pH 7.4, and test compound (final concentration 3 μM; diluted from 10 mM stock solution to give a final DMSO concentration of 0.25%) were incubated at 37°C prior to the addition of NADPH (final concentration 1 mM) to initiate the reaction with a final incubation volume of 25 µL. A control incubation was included for each compound tested, where 0.1 M phosphate buffer pH 7.4 was added instead of NADPH. The control compounds testosterone and 7-hydroxycoumarin were included in each experiment and all incubations were performed singularly for each compound. […] Following protein precipitation, the sample supernatants were combined in cassettes of up to 4 compounds and analyzed using standard LC-MS/MS conditions. From a plot of the natural logarithm of the peak area ratio (i.e., the ratio of compound peak area: internal standard peak area) against time, the gradient of the line was determined. Subsequently, half-life and intrinsic clearance were calculated using the equations below: […]

Series [4] concerns GluN1KD mice. Kind of series: Pre-pulse inhibition in GluN1KD mice. It is filed as in vivo. To be noted: ABM300 10 mg/kg, OLA 1 mg/kg i.p. As for the experimental part:
as §2

T4 sequence (P21554 whole entry, the tested form may be a part): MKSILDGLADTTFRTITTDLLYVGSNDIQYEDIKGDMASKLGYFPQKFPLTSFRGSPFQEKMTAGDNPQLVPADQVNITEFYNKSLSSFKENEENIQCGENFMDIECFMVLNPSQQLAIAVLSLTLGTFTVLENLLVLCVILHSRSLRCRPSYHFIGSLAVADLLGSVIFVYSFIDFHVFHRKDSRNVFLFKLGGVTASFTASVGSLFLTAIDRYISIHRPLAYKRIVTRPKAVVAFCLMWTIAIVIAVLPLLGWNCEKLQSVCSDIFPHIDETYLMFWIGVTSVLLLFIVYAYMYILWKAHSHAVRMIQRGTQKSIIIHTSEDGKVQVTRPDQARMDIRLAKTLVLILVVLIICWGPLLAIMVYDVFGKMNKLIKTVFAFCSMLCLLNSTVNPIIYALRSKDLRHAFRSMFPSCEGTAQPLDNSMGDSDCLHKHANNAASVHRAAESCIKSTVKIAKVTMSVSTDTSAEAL
T1 sequence (P28223 whole entry): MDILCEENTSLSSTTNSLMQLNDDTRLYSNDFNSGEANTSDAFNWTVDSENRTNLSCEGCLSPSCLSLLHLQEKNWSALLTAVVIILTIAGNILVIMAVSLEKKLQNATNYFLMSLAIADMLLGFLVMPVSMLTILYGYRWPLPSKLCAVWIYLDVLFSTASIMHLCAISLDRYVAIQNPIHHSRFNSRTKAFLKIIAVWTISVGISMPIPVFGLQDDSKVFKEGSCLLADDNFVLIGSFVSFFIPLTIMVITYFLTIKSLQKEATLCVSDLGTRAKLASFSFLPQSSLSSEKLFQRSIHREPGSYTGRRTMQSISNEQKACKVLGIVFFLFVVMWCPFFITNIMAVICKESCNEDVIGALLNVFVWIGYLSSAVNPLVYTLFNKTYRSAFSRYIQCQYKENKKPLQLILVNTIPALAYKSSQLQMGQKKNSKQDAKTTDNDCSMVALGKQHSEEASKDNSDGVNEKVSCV
T3 sequence (P41595 whole entry): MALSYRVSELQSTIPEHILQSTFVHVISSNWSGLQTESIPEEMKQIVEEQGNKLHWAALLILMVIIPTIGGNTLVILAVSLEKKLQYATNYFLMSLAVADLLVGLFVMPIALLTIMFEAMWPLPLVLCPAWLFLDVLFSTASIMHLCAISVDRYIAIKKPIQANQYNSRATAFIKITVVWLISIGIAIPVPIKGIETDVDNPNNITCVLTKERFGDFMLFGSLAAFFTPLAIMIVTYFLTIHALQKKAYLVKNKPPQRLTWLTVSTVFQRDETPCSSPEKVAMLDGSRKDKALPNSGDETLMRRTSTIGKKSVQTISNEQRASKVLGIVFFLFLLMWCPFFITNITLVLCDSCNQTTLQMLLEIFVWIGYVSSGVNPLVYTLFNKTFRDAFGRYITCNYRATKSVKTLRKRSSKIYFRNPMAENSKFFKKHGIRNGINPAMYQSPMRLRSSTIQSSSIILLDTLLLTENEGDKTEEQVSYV

Turning to `CCc1c(-c2nnc(Nc3ccccc3)o2)[nH]c2ccc(Cl)cc12` [ABM300, 5-(5-chloro-3-ethyl-1H-indol-2-yl)-N-phenyl-1,3,4-oxadiazol-2-amine], the “binding to 5HT2A” value on 5HT2A is listed as “did not display any significant binding”. In addition, the “sensorimotor gating deficits (PPI)” value in the series with DATKO mice is recorded as “rescue of the PPI deficit at the 16 dB pre-pulse interval”. Moreover, the acoustic startle response result with DATKO mice (data not shown) is on record as “Neither genotype, nor treatment with ABM300, had an effect”; in the series on GluN1KD mice [4] it was “did not respond”. Further, the “binding to 5HT1A” value on 5HT1A is “did not display any significant binding”. In the series on GluN1KD mice [1], the exaggerated stereotypic activity entry is “significantly reduced”. In the series on GluN1KD mice [1], the “novelty-induced hyperactivity (distance traveled)” value is “decreases”. The “rearing behavior (vertical exploration)” value in the series with GluN1KD mice [1] is “significantly reduced”. The “binding to 5HT2B” value at 5HT2B is recorded as “did not display any significant binding”. For the same compound, the “avoidance behavior in CAR” value in the series on Male Sprague Dawley rats is reported as “no effect”. Also, the IC50 on CB1R [2] (read-out: IC50, reduction in ERK1/2 phosphorylation) is 47 nM; at CB1R [2] (read-out: pIC50, reduction in ERK1/2 phosphorylation (converted)) it was 41.7 nM; on CB1R [3] (read-out: IC50, reduction in β-arrestin recruitment), 49.7 nM and 50 nM; at CB1R [3] (read-out: pIC50, reduction in β-arrestin recruitment (converted)), 49 nM. The compound further displayed a half-life at 3 µM in “in vitro” (microsomes, rat liver microsomal preparations) of 1.83 h. Moreover, the microsomal CLint at 3 µM in the series “in vitro” (rat liver microsomes) was determined as 12.6 ± 2 µL/min/mg. Further, the “sensorimotor gating deficits (PPI; 4, 8, 16 dB)” value in the series with GluN1KD mice [4] is listed as “did not respond”.

As usually defined, the half-life is how long it takes for the measured level to halve. Low readings indicate rapid decline, high ones slow decline. For orientation: microsomal CLint means the capacity of the preparation to metabolise the compound, expressed as a volume cleared per time. High values mean rapid turnover, low ones slow turnover.

The record behind these values is PMC7852560 (Neuropsychopharmacology, 2020).
